The source of these data is US20160010047A1, “DEVICE AND METHOD FOR WETTING A SAMPLE WITH AN AEROSOL” (Helmholtz Zentrum Muenchen Deutsches Forschungszentrum fuer …, priority 2013, published 2016).

SMILES strings stand for the structures. Where only a bound is given, the exact number is not on record here.

The subject of this assay is human pulmonary cell line (A549) stimulated with TNFα; interleukin 8 (IL-8). Put plainly: Anti-inflammatory effect on TNFα-stimulated A549 cells (IL-8 as inflammatory marker), substance applied as aerosol at the ALI with device 2 or pipetted on submerged cells. The format is cell-based. Conditions: FIG. 4. From the text:
On the other hand, if polarized lung epithelial cells (e.g. primary cells) are used, significant differences in the biological response can be expected. After stimulation of A549 cells with the tumor necrosis factor α (TNF α), the interleukin 8 (IL-8) as inflammatory marker is induced approximately 7-fold (corresponds to value 1 in FIG. 4), relative to the basal value (non-stimulated cells). […] This exemplifies that with device 2, aerosolized active substances can be applied accurately dosed and without loss of bioactivity (e.g. due to shear stresses during nebulization) on human pulmonary cells at the ALI. Thus, device 2 is suitable for the systematic screening of substances with respect to their potential as an active ingredient in aerosolized form.
This device 2 is thereby validated as a tool for quantitative drug screening for aerosolized liquid substances.

As for `CC(C)C[C@H](NC(=O)[C@H](Cc1ccccc1)NC(=O)c1cnccn1)B(O)O` [Bortezomib], where the note is “A549 cells at the ALI, TNFα-stimulated”, the “dose-response curve after administration in aerosolized form with device 2 (ALI) compared with reference curve (substance pipetted on submerged cells)” value is “identical to the reference curve”. Moreover, where the note is “A549 cells, non-polarized, stimulated with TNFα, dose-dependent”, the “reduction of the TNFα-induced inflammatory effect (IL-8 induction), factor” value is no more than 2.
